Test results published in ChEMBL document CHEMBL3045021, “Synthesis, antibacterial, and antifungal activities of biolabile (E)-1-(4-morpholinophenyl)-3-aryl-prop-2-en-1-ones” (2009).
Calls of active or inactive are those of the source. The rule behind the calls is not given here.

Legend:
Format in all cases: functional
[1] = test system: Vibrio cholerae; test: Antimicrobial activity against Vibrio cholerae at 500 ppm after 24 hr by disk diffusion method; details: read-out: IZ
[2] = test system: Klebsiella pneumoniae; test: Antimicrobial activity against Klebsiella pneumoniae at 500 ppm after 24 hr by disk diffusion method; details: read-out: IZ
[3] = test system: Pseudomonas; test: Antimicrobial activity against Pseudomonas at 500 ppm after 24 hr by disk diffusion method; details: read-out: IZ
[4] = test system: Salmonella typhi; test: Antimicrobial activity against Salmonella enterica subsp. enterica serovar Typhi at 200 ppm after 24 hr by disk diffusion method; details: read-out: IZ
[5] = test system: Nannizzia gypsea; test: Antimicrobial activity against Microsporum gypseum at 100 ppm after 72 to 96 hr by disk diffusion method; details: for zone of inhibition at 100 ppm: read-out: IZ
[6] = test system: Salmonella typhi; test: Antimicrobial activity against Salmonella enterica subsp. enterica serovar Typhi at 500 ppm after 24 hr by disk diffusion method; details: read-out: IZ
[7] = test system: Klebsiella pneumoniae; test: Antimicrobial activity against Klebsiella pneumoniae at 200 ppm after 24 hr by disk diffusion method; details: read-out: IZ
[8] = test system: Escherichia coli; test: Antimicrobial activity against Escherichia coli at 200 ppm after 24 hr by disk diffusion method; details: read-out: IZ
[9] = test system: Streptococcus; test: Antimicrobial activity against beta-hemolytic Streptococcus at 200 ppm after 24 hr by disk diffusion method; details: read-out: IZ
[10] = test system: Mucor; test: Antimicrobial activity against Mucor at 200 ppm after 72 to 96 hr by disk diffusion method; details: read-out: IZ
[11] = test system: Aspergillus flavus; test: Antimicrobial activity against Aspergillus flavus at 500 ppm after 72 to 96 hr by disk diffusion method; details: read-out: IZ
[12] = test system: Staphylococcus aureus; test: Antimicrobial activity against Staphylococcus aureus at 100 ppm after 24 hr by disk diffusion method; details: for zone of inhibition at 100 ppm: read-out: IZ
[13] = test system: Vibrio cholerae; test: Antimicrobial activity against Vibrio cholerae at 200 ppm after 24 hr by disk diffusion method; details: read-out: IZ
[14] = test system: Pseudomonas; test: Antimicrobial activity against Pseudomonas at 200 ppm after 24 hr by disk diffusion method; details: read-out: IZ
[15] = test system: Escherichia coli; test: Antimicrobial activity against Escherichia coli at 500 ppm after 24 hr by disk diffusion method; details: read-out: IZ
[16] = test system: Klebsiella pneumoniae; test: Antimicrobial activity against Klebsiella pneumoniae at 100 ppm after 24 hr by disk diffusion method; details: for zone of inhibition at 100 ppm: read-out: IZ
[17] = test system: Nannizzia gypsea; test: Antimicrobial activity against Microsporum gypseum at 500 ppm after 72 to 96 hr by disk diffusion method; details: read-out: IZ
[18] = test system: Shigella flexneri; test: Antimicrobial activity against Shigella flexneri at 500 ppm after 24 hr by disk diffusion method; details: read-out: IZ
[19] = test system: Salmonella typhi; test: Antimicrobial activity against Salmonella enterica subsp. enterica serovar Typhi at 100 ppm after 24 hr by disk diffusion method; details: for zone of inhibition at 100 ppm: read-out: IZ
[20] = test system: Escherichia coli; test: Antimicrobial activity against Escherichia coli at 100 ppm after 24 hr by disk diffusion method
[21] = test system: Shigella flexneri; test: Antimicrobial activity against Shigella flexneri at 100 ppm after 24 hr by disk diffusion method; details: for zone of inhibition at 100 ppm: read-out: IZ
[22] = test system: Streptococcus; test: Antimicrobial activity against beta-hemolytic Streptococcus at 500 ppm after 24 hr by disk diffusion method; details: read-out: IZ
[23] = test system: Vibrio cholerae; test: Antimicrobial activity against Vibrio cholerae at 100 ppm after 24 hr by disk diffusion method; details: for zone of inhibition at 100 ppm: read-out: IZ
[24] = test system: Mucor; test: Antimicrobial activity against Mucor at 500 ppm after 72 to 96 hr by disk diffusion method; details: read-out: IZ
[25] = test system: Rhizopus; test: Antimicrobial activity against Rhizopus at 100 ppm after 72 to 96 hr by disk diffusion method
[26] = test system: Pseudomonas; test: Antimicrobial activity against Pseudomonas at 100 ppm after 24 hr by disk diffusion method; details: for zone of inhibition at 100 ppm: read-out: IZ
[27] = test system: Rhizopus; test: Antimicrobial activity against Rhizopus at 200 ppm after 72 to 96 hr by disk diffusion method; details: for zone of inhibition at 200 ppm: read-out: IZ
[28] = test system: Shigella flexneri; test: Antimicrobial activity against Shigella flexneri at 200 ppm after 24 hr by disk diffusion method; details: read-out: IZ
[29] = test system: Aspergillus flavus; test: Antimicrobial activity against Aspergillus flavus at 200 ppm after 72 to 96 hr by disk diffusion method; details: read-out: IZ
[30] = test system: Mucor; test: Antimicrobial activity against Mucor at 100 ppm after 72 to 96 hr by disk diffusion method; details: for zone of inhibition at 100 ppm: read-out: IZ
[31] = test system: Staphylococcus aureus; test: Antimicrobial activity against Staphylococcus aureus at 200 ppm after 24 hr by disk diffusion method; details: read-out: IZ
[32] = test system: Rhizopus; test: Antimicrobial activity against Rhizopus at 500 ppm after 72 to 96 hr by disk diffusion method; details: read-out: IZ
[33] = test system: Staphylococcus aureus; test: Antimicrobial activity against Staphylococcus aureus at 500 ppm after 24 hr by disk diffusion method; details: read-out: IZ
[34] = test system: Aspergillus flavus; test: Antimicrobial activity against Aspergillus flavus at 100 ppm after 72 to 96 hr by disk diffusion method; details: for zone of inhibition at 100 ppm: read-out: IZ
[35] = test system: Streptococcus; test: Antimicrobial activity against beta-hemolytic Streptococcus at 100 ppm after 24 hr by disk diffusion method; details: for zone of inhibition at 100 ppm: read-out: IZ
[36] = test system: Nannizzia gypsea; test: Antimicrobial activity against Microsporum gypseum at 200 ppm after 72 to 96 hr by disk diffusion method; details: for zone of inhibition at 200 ppm: read-out: IZ

| SMILES | zone of inhibition at 500 ppm [1] | zone of inhibition at 500 ppm [2] | zone of inhibition at 500 ppm [3] | zone of inhibition at 200 ppm [4] | zone of inhibition at 500 ppm [6] | zone of inhibition at 200 ppm [7] | zone of inhibition at 200 ppm [8] | zone of inhibition at 200 ppm [9] | zone of inhibition at 200 ppm [10] | zone of inhibition at 500 ppm [11] | zone of inhibition at 200 ppm [13] | zone of inhibition at 200 ppm [14] | zone of inhibition at 500 ppm [15] | zone of inhibition at 500 ppm [17] | zone of inhibition at 500 ppm [18] | zone of inhibition at 500 ppm [22] | zone of inhibition at 500 ppm [24] | zone of inhibition at 200 ppm [28] | zone of inhibition at 200 ppm [29] | zone of inhibition at 200 ppm [31] | other results |
| --- | --- | --- | --- | --- | --- | --- | --- | --- | --- | --- | --- | --- | --- | --- | --- | --- | --- | --- | --- | --- | --- |
| O=C(/C=C/c1cccc([N+](=O)[O-])c1)c1ccc(N2CCOCC2)cc1 | 17 mm | 22 mm | 30 mm | 12 mm | 17 mm | 17 mm | 17 mm | 17 mm | 17 mm | 22 mm | 12 mm | 22 mm | 22 mm | 22 mm | 22 mm | 22 mm | 22 mm | 17 mm | 17 mm | 17 mm | zone of inhibition at 100 ppm [5]: 12 mm; inhibition zone (IZ) [12]: inactive; inhibition zone (IZ) [16]: inactive; inhibition zone (IZ) [19]: inactive; inhibition zone (IZ) [20]: inactive; zone of inhibition at 100 ppm [21]: 12 mm; inhibition zone (IZ) [23]: inactive; inhibition zone (IZ) [25]: inactive; inhibition zone (IZ) [26]: inactive; zone of inhibition at 200 ppm [27]: 17 mm; inhibition zone (IZ) [30]: inactive; zone of inhibition at 500 ppm [32]: 22 mm; zone of inhibition at 500 ppm [33]: 22 mm; zone of inhibition at 100 ppm [34]: 12 mm; inhibition zone (IZ) [35]: inactive; zone of inhibition at 200 ppm [36]: 17 mm |
| O=C(/C=C/c1ccccc1)c1ccc(N2CCOCC2)cc1 | 17 mm | 22 mm | 30 mm | 12 mm | 17 mm | 12 mm | 17 mm | 17 mm | 12 mm | 17 mm | 17 mm | 22 mm | 17 mm | 17 mm | 22 mm | 22 mm | 17 mm | 17 mm | 17 mm | 17 mm | inhibition zone (IZ) [5]: inactive; zone of inhibition at 100 ppm [12]: 12 mm; zone of inhibition at 100 ppm [16]: 12 mm; inhibition zone (IZ) [19]: inactive; inhibition zone (IZ) [20]: inactive; inhibition zone (IZ) [21]: inactive; inhibition zone (IZ) [23]: inactive; inhibition zone (IZ) [25]: inactive; zone of inhibition at 100 ppm [26]: 17 mm; zone of inhibition at 200 ppm [27]: 12 mm; inhibition zone (IZ) [30]: inactive; zone of inhibition at 500 ppm [32]: 17 mm; zone of inhibition at 500 ppm [33]: 22 mm; zone of inhibition at 100 ppm [34]: 12 mm; zone of inhibition at 100 ppm [35]: 12 mm; zone of inhibition at 200 ppm [36]: 12 mm |
| COc1ccc(/C=C/C(=O)c2ccc(N3CCOCC3)cc2)cc1 | 17 mm | 30 mm | 30 mm | 12 mm | 17 mm | 17 mm | 12 mm | 22 mm | 12 mm | 17 mm | 12 mm | 22 mm | 17 mm | 17 mm | 22 mm | 30 mm | 17 mm | 17 mm | 12 mm | 22 mm | zone of inhibition at 100 ppm [5]: 12 mm; zone of inhibition at 100 ppm [12]: 12 mm; inhibition zone (IZ) [16]: inactive; inhibition zone (IZ) [19]: inactive; inhibition zone (IZ) [20]: inactive; inhibition zone (IZ) [21]: inactive; inhibition zone (IZ) [23]: inactive; inhibition zone (IZ) [25]: inactive; zone of inhibition at 100 ppm [26]: 12 mm; zone of inhibition at 200 ppm [27]: 12 mm; inhibition zone (IZ) [30]: inactive; zone of inhibition at 500 ppm [32]: 17 mm; zone of inhibition at 500 ppm [33]: 30 mm; zone of inhibition at 100 ppm [34]: 12 mm; zone of inhibition at 100 ppm [35]: 12 mm; zone of inhibition at 200 ppm [36]: 12 mm |
| Cc1ccc(/C=C/C(=O)c2ccc(N3CCOCC3)cc2)cc1 | 17 mm | 30 mm | 30 mm | 17 mm | 17 mm | 17 mm | 12 mm | 17 mm | 12 mm | 17 mm | 12 mm | 22 mm | 17 mm | 17 mm | 30 mm | 30 mm | 17 mm | 17 mm | 12 mm | 17 mm | zone of inhibition at 100 ppm [5]: 12 mm; inhibition zone (IZ) [12]: inactive; zone of inhibition at 100 ppm [16]: 12 mm; zone of inhibition at 100 ppm [19]: 12 mm; inhibition zone (IZ) [20]: inactive; zone of inhibition at 100 ppm [21]: 12 mm; zone of inhibition at 100 ppm [23]: 12 mm; zone of inhibition at 100 ppm ([25]; read-out: IZ): 12 mm; zone of inhibition at 100 ppm [26]: 17 mm; inhibition zone (IZ) [27]: inactive; zone of inhibition at 100 ppm [30]: 12 mm; zone of inhibition at 500 ppm [32]: 17 mm; zone of inhibition at 500 ppm [33]: 30 mm; zone of inhibition at 100 ppm [34]: 12 mm; zone of inhibition at 100 ppm [35]: 12 mm; inhibition zone (IZ) [36]: inactive |
| O=C(/C=C/c1ccc(Cl)cc1)c1ccc(N2CCOCC2)cc1 | 17 mm | 30 mm | 30 mm | 17 mm | 22 mm | 22 mm | 17 mm | 17 mm | 17 mm | 30 mm | 17 mm | 22 mm | 17 mm | 22 mm | 22 mm | 22 mm | 22 mm | 17 mm | 22 mm | 17 mm | zone of inhibition at 100 ppm [5]: 12 mm; zone of inhibition at 100 ppm [12]: 12 mm; zone of inhibition at 100 ppm [16]: 12 mm; inhibition zone (IZ) [19]: inactive; zone of inhibition at 100 ppm ([20]; read-out: IZ): 12 mm; zone of inhibition at 100 ppm [21]: 17 mm; zone of inhibition at 100 ppm [23]: 12 mm; inhibition zone (IZ) [25]: inactive; zone of inhibition at 100 ppm [26]: 17 mm; zone of inhibition at 200 ppm [27]: 17 mm; zone of inhibition at 100 ppm [30]: 12 mm; zone of inhibition at 500 ppm [32]: 30 mm; zone of inhibition at 500 ppm [33]: 22 mm; inhibition zone (IZ) [34]: inactive; zone of inhibition at 100 ppm [35]: 12 mm; zone of inhibition at 200 ppm [36]: 17 mm |
| O=C(/C=C/c1ccc(F)cc1)c1ccc(N2CCOCC2)cc1 | 17 mm | 22 mm | 30 mm | 17 mm | 17 mm | 12 mm | 17 mm | 17 mm | 17 mm | 30 mm | 17 mm | 22 mm | 17 mm | 30 mm | 22 mm | 22 mm | 22 mm | 17 mm | 17 mm | 17 mm | inhibition zone (IZ) [5]: inactive; inhibition zone (IZ) [12]: inactive; inhibition zone (IZ) [16]: inactive; zone of inhibition at 100 ppm [19]: 12 mm; inhibition zone (IZ) [20]: inactive; inhibition zone (IZ) [21]: inactive; zone of inhibition at 100 ppm [23]: 12 mm; inhibition zone (IZ) [25]: inactive; inhibition zone (IZ) [26]: inactive; zone of inhibition at 200 ppm [27]: 17 mm; inhibition zone (IZ) [30]: inactive; zone of inhibition at 500 ppm [32]: 22 mm; zone of inhibition at 500 ppm [33]: 22 mm; zone of inhibition at 100 ppm [34]: 12 mm; inhibition zone (IZ) [35]: inactive; zone of inhibition at 200 ppm [36]: 17 mm |
